According to patent US10377773B2, “Isothiazolopyrimidinones, pyrazolopyrimidinones, and pyrrolopyrimidinones as ubiquitin-specific protease 7 inhibitors” (FORMA Therapeutics, Inc., priority 2015, dated 2019):

Molecular target: T1, USP7 (Homo sapiens, UniProt Q93009)
T1 construct: USP7, construct USP7 (208-1102) 6*His, Viva Biotech; initiator Met (N); TEV site (C); 6*His (C); purchased Viva Biotech
Experiment: USP7 Assay A and B (Ubiquitin-Rhodamine 110 assay)
Type: biochemical
Conditions: Ub-Rh110 substrate 25 nM, read-out: USP7_IC50
Description: Each assay was performed in a final volume of 15 μL in assay buffer containing 20 mM Tris-HCl (pH 8.0, (1M Tris-HCl, pH 8.0 solution; Corning 46-031-CM)), 1 mM GSH (L-Glutathione reduced; Sigma #G4251), 0.03% BGG (0.22 μM filtered, Sigma, #G7516-25G), and 0.01% Triton X-100 (Sigma, #T9284-10L). Nanoliter quantities of either an 8-point or 10-point, 3-fold serial dilution in DMSO was pre-dispensed into assay plates (Perkin Elmer, ProxiPlate-384 F Plus, #6008269) for a final test concentration range of either 25 μM to 11 nM or 25 μM to 1.3 nM, respectively. The final concentration of the enzyme (USP7, construct USP7 (208-1102) 6*His, Viva Biotech) in the assay was 62.5 pM. Final substrate (Ub-Rh110; Ubiquitin-Rhodamine 110, R&D Systems #U-555) concentration was 25 nM with [Ub-Rh110]<<Km. 5 μL of 2× enzyme was added to the assay plates (pre-stamped with compound) and preincubated with USP7 for 30 min. 5 μL of 2×Ub-Rh110 was then added to assay plates. Plates were incubated stacked for 20 min at room temperature before 5 μL of stop solution (final concentration of 10 mM citric acid in assay buffer (Sigma, #251275-500G)). Fluorescence was read on the Envision (Excitation at 485 nm and Emission at 535 nm; Perkin Elmer) or on the PheraSTAR (Excitation at 485 nm and Emission at 535 nm; BMG Labtech).
Each assay was performed in a final volume of 20 μL in assay buffer containing 20 mM Tris-HCl (pH 8.0, (1M Tris-HCl, pH 8.0 solution; Corning 46-031-CM)), 2 mM CaCl2 (1M calcium chloride solution; Sigma #21114), 1 mM GSH (L-Glutathione reduced; Sigma #G4251), 0.01% Prionex (0.22 μM filtered, Sigma #G-0411), and 0.01% Triton X-100. Stock compound solutions were stored at −20° C. as 10 mM in DMSO. Up to 1 month prior to the assay, 2 mM test compounds were pre-dispensed into assay plates (Black, low volume; Corning #3820) and frozen at −20° C. Prestamped assay plates were allowed to warm to room temperature on the day of the assay. For the screen, 100 nL of 2 mM was pre-dispensed for a final screening concentration of 10 μM (DMSO(fc)=0.5%). For follow-up studies, 250 nL of an 8-point, 3-fold serial dilution in DMSO was pre-dispensed into assay plates for a final test concentration of 25 μM-11 nM (1.25c % DMSO final concentration). Unless otherwise indicated, all follow-up assays were run on triplecate plates. Enzyme (USP7, construct Met (208-1102)-TEV-6*His; Viva Q93009-1) concentration and incubation times were optimized for the maximal signal-to-background while maintaining initial velocity conditions at a fixed substrate concentration. The final concentration of the enzyme in the assay was either 75 pM or 250 pM. Final substrate (Ub-Rh110; Ubiquitin-Rhodamine 110, R&D Systems (biotechne)#U-555) concentration was 25 nM with [Ub-Rh110]<<Km. Compounds were either not preincubated or preincubated with USP7 between 30 to 120 min prior to the addition of 10 μL of 2×Ub-Rh110 to compound plates. Plates were incubated stacked for either 23 or 45 min at room temperature before fluorescence was read on the Envision (Excitation at 485 nm and Emission at 535 nm; Perkin Elmer) or on the PheraSTAR (Excitation at 485 nm and Emission at 535 nm; BMG Labtech).
Data from USP7 Assays A and B were reported as percent inhibition (inh) compared with control wells based on the following equation: % inh=1−((FLU−AveLow)/(AveHigh−AveLow)) where FLU=measured Fluorescence, AveLow=average Fluorescence of no enzyme control (n=16), and AveHigh=average Fluorescence of DMSO control (n=16). IC50 values were determined by curve fitting of the standard 4 parameter logistic fitting algorithm included in the Activity Base software package: IDBS XE Designer Model205. Data was fitted using the Levenburg Marquardt algorithm.

T1 sequence (Q93009 208-1102): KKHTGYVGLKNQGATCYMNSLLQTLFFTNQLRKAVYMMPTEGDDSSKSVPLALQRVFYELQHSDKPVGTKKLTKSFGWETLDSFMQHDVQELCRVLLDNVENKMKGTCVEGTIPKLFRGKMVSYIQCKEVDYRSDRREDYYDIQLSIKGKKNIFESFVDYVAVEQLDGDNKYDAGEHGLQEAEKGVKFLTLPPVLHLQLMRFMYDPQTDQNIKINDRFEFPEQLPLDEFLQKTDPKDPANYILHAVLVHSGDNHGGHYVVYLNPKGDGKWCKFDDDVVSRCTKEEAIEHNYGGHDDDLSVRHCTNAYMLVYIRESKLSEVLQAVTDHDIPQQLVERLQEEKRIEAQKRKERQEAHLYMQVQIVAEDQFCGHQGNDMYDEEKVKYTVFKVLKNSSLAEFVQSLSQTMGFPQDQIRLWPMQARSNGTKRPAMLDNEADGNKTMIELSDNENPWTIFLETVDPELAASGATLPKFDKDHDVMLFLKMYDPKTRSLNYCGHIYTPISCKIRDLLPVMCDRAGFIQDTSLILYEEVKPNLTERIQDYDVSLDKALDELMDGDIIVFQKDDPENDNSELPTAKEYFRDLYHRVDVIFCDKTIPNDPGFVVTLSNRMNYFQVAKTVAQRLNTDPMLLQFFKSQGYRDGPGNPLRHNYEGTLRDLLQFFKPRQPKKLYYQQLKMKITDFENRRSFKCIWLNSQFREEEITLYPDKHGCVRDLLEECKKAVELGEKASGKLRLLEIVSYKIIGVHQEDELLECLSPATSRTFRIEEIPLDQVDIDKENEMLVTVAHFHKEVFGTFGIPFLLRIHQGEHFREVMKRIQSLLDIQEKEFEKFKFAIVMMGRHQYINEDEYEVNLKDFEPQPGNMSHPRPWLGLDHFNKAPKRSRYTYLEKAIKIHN

Compound	IC50
COc1ccc(-c2n[nH]c3c(=O)n(CC4(O)CCN(C(=O)c5ccc(F)cc5)CC4)cnc23)cc1 [Compound I-6, 6-{[1-(4-fluorobenzoyl)-4-hydroxypiperidin-4-yl]methyl}-3-(4-methoxyphenyl)-1H, 6H,7H-pyrazolo[4,3-d]pyrimidin-7-one]	< 500 nM
C[C@H](CC(=O)N1CCC(O)(Cn2cnc3cc[nH]c3c2=O)CC1)c1ccccc1 [Compound I-28, 3-({4-hydroxy-1-[(3R)-3-phenylbutanoyl]piperidin-4-yl}methyl)-3H,4H,5H-pyrrolo[3,2-d]pyrimidin-4-one]	< 500 nM
COc1ccc(C(=O)N2CCC(O)(Cn3cnc4c(-c5ccc(F)cc5)n[nH]c4c3=O)CC2)cc1 [Compound I-20, 3-(4-fluorophenyl)-6-{[4-hydroxy-1-(4-methoxybenzoyl)piperidin-4-yl]methyl}-1H, 6H,7H-pyrazolo[4,3-d]pyrimidin-7-one]	1000 to 10000 nM
O=C(C[C@@H](c1ccccc1)C(F)F)N1CCC(O)(Cn2cnc3c(-c4ccccc4)nsc3c2=O)CC1 [Compound I-19, 6-({1-[(3 S)-4,4-difluoro-3-phenylbutanoyl]-4-hydroxypiperidin-4-yl}methyl)-3-phenyl-6H, 7H-[1,2]thiazolo[4,5-d]pyrimidin-7-one]	500 to 1000 nM
3-(4-fluoro-3-methoxyphenyl)-6-{[1-(4-fluorobenzoyl)-4-hydroxypiperidin-4-yl]methyl}-6H,7H-[1,2]thiazolo[4,5-d]pyrimidin-7-one [Compound I-9]	> 10000 nM
CN(C)C(=O)N1CCC(O)(Cn2cnc3c(-c4ccc(F)c(N5CCNCC5)c4)nsc3c2=O)CC1 [Compound I-22, 4-({3-[4-fluoro-3-(piperazin-1-yl)phenyl]-7-oxo-6H,7H-[1,2]thiazolo[4,5-d]pyrimidin-6-yl}methyl)-4-hydroxy-N,N-dimethylpiperidine-1-carboxamide]	1000 to 10000 nM
O=C(c1ccc(F)cc1)N1CCC(O)(Cn2cnc3c(-c4cccc(CO)c4)nsc3c2=O)CC1 [Compound I-4, 6-{[1-(4-fluorobenzoyl)-4-hydroxypiperidin-4-yl]methyl}-3-[3-(hydroxymethyl)phenyl]-6H,7H-[1,2]thiazolo[4,5-d]pyrimidin-7-one]	1000 to 10000 nM
O=C(C[C@H](c1ccccc1)C(F)F)N1CCC(O)(Cn2cnc3c(-c4ccccc4)nsc3c2=O)CC1 [Compound I-18, 6-({1-[(3R)-4,4-difluoro-3-phenylbutanoyl]-4-hydroxypiperidin-4-yl}methyl)-3-phenyl-6H,7H-[1,2]thiazolo[4,5-d]pyrimidin-7-one]	> 10000 nM
COc1ccc(-c2nsc3c(=O)n(CC4(O)CCN(C(=O)c5ccc(F)cc5)CC4)cnc23)cc1 [Compound I-2, 6-{[1-(4-fluorobenzoyl)-4-hydroxypiperidin-4-yl]methyl}-3-(4-methoxyphenyl)-6H,7H-[1,2]thiazolo[4,5-d]pyrimidin-7-one]	1000 to 10000 nM
